In patent US10112940B2, “Histone demethylase inhibitors” (Celgene Quanticel Research, Inc., priority 2014, dated 2018) one finds IC50 data, which are given here for 30 compounds.

In assay [1] the test system is KYSE-150 esophageal carcinoma cell line. The assay can be described thus: In vitro cell-based assay: BrdU incorporation cell proliferation ELISA. Also noted: species or system human. As to conditions: Homo sapiens, KYSE-150 cells, 168 hours compound incubation, read-out: Cellular IC50. Here is the method: Cell lines tested include the JMJD2C gene amplified cell line KYSE-150. This is a quantitative ELISA assay measuring DNA incorporation of BrdU during S-phase as a direct readout of cellular proliferation.
Assay Principle: This is a colorimetric immunoassay for the quantification of cell proliferation. Cells treated for 168 hours with test compounds are assayed for their ability to go through S-phase as a measure of their proliferative potential.
Assay Method: The human KYSE-150 (SMAD4 mut, TP53 mut) esophageal carcinoma cell line was seeded at 2,000 cells/well on a 96-well tissue culture treated plate. After an overnight incubation, cells were treated with compound in an 11-point dilution series with final concentrations ranging from 100 μM to 2 nM. Cells were then incubated in the presence of compound for 168 hours. After compound incubation the cells were assayed using a BrdU Cell Proliferation ELISA (Roche). The cells were first incubated with BrdU labeling reagent for 2 hours. After 2 hours, the BrdU incorporated cells were fixed and denatured, probed with an anti-BrdU-Peroxidase antibody for 1.5 hours and washed. Finally, a tetramethylbenzidine peroxidase substrate was added to each well for 15 minutes followed by a H2SO4 stop solution. The plate was read at 450 nm, and the raw optical density data was transferred into XLFit (IDBS) for IC50 calculation using the formula: fit=(D+((Vmax*(x^n))/((x^n)+(Km^n))))
Table 4 provides the cellular IC50 values of various compounds disclosed herein.
On the technique in general: Incorporation of labelled thymidine or its analogues reports DNA synthesis.

The target in assay [2] is JMJD2C (Homo sapiens (Human), UniProt Q9H3R0). Description: JMJD2C in vitro enzyme inhibition assay (TR-FRET). In kind it is biochemical. The note with it: 0.3 nM JMJD2C, 300 nM H3K9me3-biotin peptide, 2 μM alpha-ketoglutaric acid, 30 minutes. The procedure: This assay determines the ability of a test compound to inhibit JMJD2C demethylase activity. Baculovirus expressed JMJD2C (GenBank Accession #BC143571, AA 2-372) was purchased from BPS Bioscience (Cat#50105).
Sequence of JMJD2C (Q9H3R0 2-372): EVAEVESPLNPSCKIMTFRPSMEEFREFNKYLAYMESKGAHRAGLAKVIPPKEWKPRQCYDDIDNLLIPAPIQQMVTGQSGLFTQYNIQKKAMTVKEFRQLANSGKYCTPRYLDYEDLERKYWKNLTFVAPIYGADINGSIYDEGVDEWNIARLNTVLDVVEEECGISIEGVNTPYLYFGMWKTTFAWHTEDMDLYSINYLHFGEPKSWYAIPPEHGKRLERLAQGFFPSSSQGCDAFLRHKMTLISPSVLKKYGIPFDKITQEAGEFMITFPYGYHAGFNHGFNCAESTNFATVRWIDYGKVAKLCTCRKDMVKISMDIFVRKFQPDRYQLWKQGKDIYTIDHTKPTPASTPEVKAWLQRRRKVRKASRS
The ability of test compounds to inhibit the activity of JMJD2C was determined in 384-well plate format under the following reaction conditions: 0.3 nM JMJD2C, 300 nM H3K9me3-biotin labeled peptide (Anaspec cat #64360), 2 μM alpha-ketoglutaric acid in assay buffer of 50 mM HEPES, pH7.3, 0.005% Brij35, 0.5 mM TCEP, 0.2 mg/ml BSA, 50 μM sodium L-ascorbate, and 2 μM ammonium iron(II) sulfate. Reaction product was determined quantitatively by TR-FRET after the addition of detection reagent Phycolink Streptavidin-allophycocyanin (Prozyme) and Europium-anti-di-methylated histone H3 lysine 9 (H3K9me2) antibody (PerkinElmer) in the presence of 5 mM EDTA in LANCE detection buffer (PerkinElmer) at a final concentration of 50 nM and 1 nM, respectively.
The assay reaction was initiated by the following: 2 μl of the mixture of 900 nM H3K9me3-biotin labeled peptide and 6 μM alpha-ketoglutaric acid with 2 μl of 11-point serial diluted inhibitor in 3% DMSO were added to each well of the plate, followed by the addition of 2 μl of 0.9 nM JMJD2C to initiate the reaction. The reaction mixture was incubated at room temperature for 30 minutes, and terminated by the addition of 6 μl of 5 mM EDTA in LANCE detection buffer containing 100 nM Phycolink Streptavidin-allophycocyanin and 2 nM Europium-anti-H3K9me2 antibody. Plates were read by EnVisionMultilabel Reader in TR-FRET mode (excitation at 320 nm, emission at 615 nm and 665 nm) after 1 hour incubation at room temperature. A ratio was calculated (665/615) for each well and fitted to determine inhibition constant (IC50).
The ability of the compounds disclosed herein to inhibit demethylase activity was quantified and the respective IC50 value was determined. Table 3 provides the IC50 values of various compounds disclosed herein.
A general note: TR-FRET usually uses a lanthanide donor and a delayed reading to cut background.

Each structure is given as a SMILES string.

The IC50 is the concentration that inhibits the measured activity by half. For `Cn1ccc2cc(Oc3nc(O)c4ccncc4n3)ccc21` [Example 2, 2-(1-Methyl-1H-indol-5-yloxy)-pyrido[3,4-d]pyrimidin-4-ol], the half-inhibitory concentration (IC50) in assay [1] was not above 100 nM; in assay [2], 100 to 1000 nM. `CN(c1ccc(Oc2nc(O)c3ccncc3n2)cc1)c1ccc(C2(C(F)(F)F)CC2)cc1` [Example 107, 2-[4-[N-methyl-4-[1-(trifluoromethyl)cyclopropyl]anilino]phenoxy]pyrido[3,4-d]pyrimidin-4-ol]: the IC50 in assay [1] was not above 100 nM; in assay [2] it was 1000 to 10000 nM. Consider `CN(c1ccc(Oc2nc(O)c3ccncc3n2)cc1)c1ccc2nn(C)cc2c1` [Example 82, 2-[4-[methyl-(2-methylindazol-5-yl)amino]phenoxy]pyrido[3,4-d]pyrimidin-4-ol], for which the IC50 in assay [1] was more than 10000 nM; in assay [2] it was 100 to 1000 nM. As for `CN(c1ccc(Oc2nc(O)c3ccncc3n2)cc1)c1ccc(N2CCCC2)cc1` [Example 49, 2-[4-(N-methyl-4-pyrrolidin-1-ylanilino)phenoxy]pyrido[3,4-d]pyrimidin-4-ol], the IC50 in assay [1] was 100 to 1000 nM; in assay [2] it was 1000 to 10000 nM. The like results for `CC[C@@H](C)c1ccc(N(C)c2ccc(Oc3nc(O)c4ccncc4n3)cc2)cc1` [Example 78, 2-[4-[4-[(2R)-butan-2-yl]-N-methylanilino]phenoxy]pyrido[3,4-d]pyrimidin-4-ol] were, in that order, not above 100 nM and 1000 to 10000 nM. In the same order, the values of `CCc1ccc(N(C)c2ccc(Oc3nc(O)c4ccncc4n3)cc2)cc1OCCOC` [Example 66, 2-[4-[4-ethyl-3-(2-methoxyethoxy)-N-methylanilino]phenoxy]pyrido[3,4-d]pyrimidin-4-ol] are 1000 to 10000 nM and 1000 to 10000 nM. In the same order, the values of `CN(c1ccc(Oc2nc(O)c3ccncc3n2)cc1)c1cccc(Cl)c1` [Example 95, 2-[4-(3-chloro-N-methylanilino)phenoxy]pyrido[3,4-d]pyrimidin-4-ol] are 1000 to 10000 nM and 1000 to 10000 nM.

Turning to `CC(CCN(C)C)c1ccc(N(C)c2ccc(Oc3nc(O)c4ccncc4n3)cc2)cc1` (stereo not shown) [Example 115, 2-(4-{[4-(3-dimethylamino-1-methyl-propyl)-phenyl]-methyl-amino}-phenoxy)-pyrido[3,4-d]pyrimidin-4-ol], the values for the IC50 in assay [1] and in assay [2] were more than 10000 nM and not above 100 nM, respectively.

`CN(c1ccc(Oc2nc(O)c3ccncc3n2)cc1)c1ccccn1` [Example 1, 2-[4-(Methyl-pyridin-2-yl-amino)-phenoxy]-pyrido[3,4-d]pyrimidin-4-ol]: the IC50 lay in the range of 1000 to 10000 nM in assay [1] and 100 to 1000 nM in assay [2]. On to `CN(c1ccc(Oc2nc(O)c3ccncc3n2)cc1)c1ccc(C(C)(C)C)cc1` [Example 92, 2-[4-(4-tert-butyl-N-methylanilino)phenoxy]pyrido[3,4-d]pyrimidin-4-ol], for which the results for the half-inhibitory concentration (IC50) in assay [1] and in assay [2] were not above 100 nM and 100 to 1000 nM, respectively. Compound `CN(CC1CCCc2ccccc21)c1ccc(Oc2nc(O)c3ccncc3n2)cc1` (stereo not shown) [Example 28, 2-{4-[methyl-(1,2,3,4-tetrahydro-naphthalen-1-ylmethyl)-amino]-phenoxy}-pyrido[3,4-d]pyrimidin-4-ol] came in with an IC50 in assay [2] not above 100 nM. On the same count and under the same terms, in the case of `Oc1nc(Oc2ccc3nn(Cc4ccccc4)cc3c2)nc2cnccc12` [Example 14, 2-[2-Benzyl-2H-indazol-5-yloxy]pyridino[3,4-d]pyrimidin-4-ol] it was 100 to 1000 nM; in that of `COc1ccc(N(C)c2ccc(Oc3nc(O)c4ccncc4n3)cc2)cc1` [Example 16, 2-{4-[(4-Methoxy-phenyl)-methyl-amino]-phenoxy}-pyrido[3,4-d]pyrimidin-4-ol], 100 to 1000 nM. In the case of `Cc1cccc(N(C)c2ccc(Oc3nc(O)c4ccncc4n3)cc2)c1` [Example 21, 2-[4-(Methyl-m-tolyl-amino)-phenoxy]-pyrido[3,4-d]pyrimidin-4-ol], in assay [2], the IC50 lay in the range of 100 to 1000 nM. In assay [2], `CC(C)Cc1ccc(N(C)c2ccc(Oc3nc(O)c4ccncc4n3)cc2)cc1` [Example 63, 2-[4-[N-methyl-4-(2-methylpropyl)anilino]phenoxy]pyrido[3,4-d]pyrimidin-4-ol] gave an IC50 of 100 to 1000 nM.

Compound `Cc1ccc(N(C)c2ccc(Oc3nc(O)c4ccncc4n3)cc2)cc1` [Example 20, 2-[4-(Methyl-p-tolyl-amino)-phenoxy]-pyrido[3,4-d]pyrimidin-4-ol] returned an IC50 in assay [2] of 100 to 1000 nM. `CN(c1ccccc1)c1ccc(Oc2nc(O)c3ccncc3n2)cc1F` [Example 10, 2-[3-Fluoro-4-(methyl-phenyl-amino)-phenoxy]-pyrido[3,4-d]pyrimidin-4-ol] registered an IC50 in assay [2] of 100 to 1000 nM. Turning to `Oc1nc(Oc2ccc(N3CCCC(c4ccccc4)C3)cc2)nc2cnccc12` (stereo not shown) [Example 25, 2-[4-(3-phenyl-piperidin-1-yl)-phenoxy]-pyrido[3,4-d]pyrimidin-4-ol], the 50% inhibitory concentration (IC50) in assay [2] lay within 100 to 1000 nM. Regarding `Oc1nc(Oc2ccc3c(ccn3C3CCCC3)c2)nc2cnccc12` [Example 31, 2-(1-cyclopentyl-1H-indol-5-yloxy)-pyrido[3,4-d]pyrimidin-4-ol], in assay [2], the IC50 lay in the range of 1000 to 10000 nM. The same measure, in the same setting: the result for `CC(C)c1ccc(N(CC(F)(F)F)c2ccc(Oc3nc(O)c4ccncc4n3)cc2)cc1` [Example 114, 2-{4-[(4-isopropyl-phenyl)-(2,2,2-trifluoro-ethyl)-amino]-phenoxy}-pyrido[3,4-d]pyrimidin-4-ol] reads 100 to 1000 nM; that for `Oc1nc(Oc2ccc3cnn(Cc4ccccc4)c3c2)nc2cnccc12` [Example 11, 2-(1-Benzyl-1H-indazol-6-yloxy)-pyrido[3,4-d]pyrimidin-4-ol], 100 to 1000 nM; that for `Oc1nc(Oc2ccc3ccn(Cc4ccccc4)c3c2)nc2cnccc12` [Example 8, 2-(1-Benzyl-1H-indol-6-yloxy)-pyrido[3,4-d]pyrimidin-4-ol], 1000 to 10000 nM.

Consider `CN(Cc1ccccc1)c1cccc(Oc2nc(O)c3ccncc3n2)c1` [Example 9, 2-[3-(Benzyl-methyl-amino)-phenoxy]-pyrido[3,4-d]pyrimidin-4-ol], for which the IC50 in assay [2] was 1000 to 10000 nM.

`COc1cccc(N(C)c2ccc(Oc3nc(O)c4ccncc4n3)cc2)c1` [Example 17, 2-{4-[(3-Methoxy-phenyl)-methyl-amino]-phenoxy}-pyrido[3,4-d]pyrimidin-4-ol] came in with an IC50 in assay [2] of 100 to 1000 nM. The same measure, in the same setting: the result for `CC(C)c1ccc(N(C)c2ccc(Oc3nc(O)c4ccncc4n3)cc2)cc1N1CCOCC1` [Example 35, 2-{4-[(4-isopropyl-3-morpholin-4-yl-phenyl)-methyl-amino]-phenoxy}-pyrido[3,4-d]pyrimidin-4-ol] reads 100 to 1000 nM; that for `CC(C)c1cccc(N(C)c2ccc(Oc3nc(O)c4ccncc4n3)cc2)c1` [Example 93, 2-[4-(N-methyl-3-propan-2-ylanilino)phenoxy]pyrido[3,4-d]pyrimidin-4-ol], 100 to 1000 nM; that for `Oc1nc(Oc2ccc3c(c2)CCCN3c2ccccc2)nc2cnccc12` [Example 33, 2-(1-phenyl-1,2,3,4-tetrahydro-quinolin-6-yloxy)-pyrido[3,4-d]pyrimidin-4-ol], 1000 to 10000 nM.

For `CN(c1ccc(Oc2nc(O)c3ccncc3n2)cc1)c1ccc(N2CCOCC2)cc1` [Example 18, 2-{4-[Methyl-(4-morpholin-4-yl-phenyl)-amino]-phenoxy}-pyrido[3,4-d]pyrimidin-4-ol], the half-maximal inhibitory concentration (IC50) in assay [2] fell in the range of 100 to 1000 nM. Compound `CC(C)c1ccc(N(C)c2ccc(Oc3nc(O)c4ccncc4n3)cc2)nc1` [Example 34, 2-{4-[(5-isopropyl-pyridin-2-yl)-methyl-amino]-phenoxy}-pyrido[3,4-d]pyrimidin-4-ol] displayed an IC50 in assay [2] not above 100 nM. As for `CC(C)c1ccc(N(c2ccc(Oc3nc(O)c4ccncc4n3)cc2)C2CCOCC2)cc1` [Example 118, 2-(4-((4-isopropylphenyl)(tetrahydro-2H-pyran-4-yl)amino)phenoxy)pyrido[3,4-d]pyrimidin-4-ol], the IC50 in assay [2] lay within 100 to 1000 nM.
